Experimental data reported in US7560482B2, “Inhibitors of plasmepsins” (The Johns Hopkins University, priority 2001, dated 2009).
Where two headings read alike, the source gives them in different places.

How the values were obtained:
[1] = system: chloroquine-sensitive Plasmodium falciparum (NF54); test: malaria-infected human red blood cell assay, [3H]hypoxanthine incorporation; type: cell-based; details: P. falciparum NF54, 48 h + 20 h incubation; read-out: IC50, killing of malaria parasite in infected red blood cell assay
Procedure: The ability of some KNI compounds to kill the malaria parasite was evaluated by measuring the IC50 in a malaria-infected human red blood cell assay. Activity was determined by measuring the incorporation of [^3H]hypoxanthine. Briefly, chloroquine-sensitive Plasmodium falciparum (NF54) were maintained in a 2.4% suspension of type O^+ human erythrocytes in RPMI 1640, supplemented with 25 mM HEPES, 27 mM NaHCO3, and 10% heat-inactivated human type O^+ serum, under 3% O2, 4% CO2, and 93% N2. 20 mM stock solutions of KNI-764 and KNI-727 and KNI-840 were prepared in DMSODMSO solutions were diluted 500 fold in medium, serially diluted in 0.2% DMSO in medium, then 100 μl aliquots were pipetted into microtiter plate wells. Provisional EC50 values were obtained in a survey of ten 5-fold dilutions yielding final concentrations (in quadruplicate) of 0.00001-20 μM. Plates included 8 wells of no drug controls (4 with and 4 without DMSO) and 4 wells in uninfected erythrocytes. […] The filters were washed four times with 3 ml water per sample spot, dried under a heat lamp, and counted in scintillation cocktail. Decays per minute values were downloaded and analyzed in order to yield the mean and standard deviation at each drug concentration. […]

[2] = biological target: T1, plasmepsin II from Plasmodium falciparum (Plm II) (Plasmodium falciparum, UniProt P46925); test: Plasmepsin II inhibition assay, hydrolysis of chromogenic substrate; type: biochemical; details: for discrimination factor / Cathepsin D selectivity: Plasmepsin II versus Cathepsin D, fold; for Discrimination Factor: Fold Selectivity for Plasmepsin II over Cathepsin D: ratio of the Ki for Cathepsin D to the Ki for Plasmepsin II
T1 construct: made in house; host or cells: Escherichia coli
T1 sequence (P46925 125-453): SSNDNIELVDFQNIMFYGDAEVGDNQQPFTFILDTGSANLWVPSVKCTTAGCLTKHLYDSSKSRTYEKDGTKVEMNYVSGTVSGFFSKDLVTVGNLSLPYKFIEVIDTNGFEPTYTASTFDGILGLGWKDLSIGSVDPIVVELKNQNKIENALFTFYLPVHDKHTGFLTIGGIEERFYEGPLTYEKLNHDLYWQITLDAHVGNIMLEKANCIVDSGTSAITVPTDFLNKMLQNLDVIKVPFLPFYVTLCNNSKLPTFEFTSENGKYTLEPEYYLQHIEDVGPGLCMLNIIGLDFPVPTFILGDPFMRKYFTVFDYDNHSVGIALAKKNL
Procedure: FIG. 7A-C. Inhibition of Plasmepsin II from Plasmodium falciparum by KNI-10033, KNI-10030 and KNI-10006 at 20° C. in 10 mM sodium citrate, 100 mM NaCl, 2% DMSO, pH 4.0. The inhibition constants are 3 nM, 11 nM and 0.5 rLM respectively.
(§1) The specific activity of plasmepsin II from Plasmodium falciparum (Plm II) cloned in and purified from Escherchia coli and commercially available human Cathepsin D were measured by following the hydrolysis of the chromogenic substrate Ala-Leu-Glu-Arg-Thr-nPhe-Phe-Ser-Phe-Pro-Thr-OH (California Peptide Research Inc., Napa, Calif.). The decrease in absorbance upon hydrolysis is monitored at 300 nm. Typical Plasmepsin II preparations hydrolyze chromogenic substrate at 4-5 s^−1 at 37° C. The inhibition assays were performed at 25° C. in 10 mM sodium formate, 2% DMSO, pH 4.0. These pH conditions mimic the conditions in the food vacuole of the parasite. […] Inhibition constants (Ki) for the inhibitors are obtained at the desired temperature and solvent conditions by measuring the rate of substrate hydrolysis at increasing amounts of inhibitors. Exemplary results from three compounds (KNI-10033, KNI-10030 and KNI-10006) are shown in FIG. 7A-C, and the results obtained with all KNI compounds tested are given in Table 1.

human Cathepsin D = biological target: T2, human Cathepsin D (Homo sapiens, UniProt P07339); test: Cathepsin D inhibition assay, hydrolysis of chromogenic substrate; type: biochemical
T2 construct: purchased
T2 sequence (P07339 65-412): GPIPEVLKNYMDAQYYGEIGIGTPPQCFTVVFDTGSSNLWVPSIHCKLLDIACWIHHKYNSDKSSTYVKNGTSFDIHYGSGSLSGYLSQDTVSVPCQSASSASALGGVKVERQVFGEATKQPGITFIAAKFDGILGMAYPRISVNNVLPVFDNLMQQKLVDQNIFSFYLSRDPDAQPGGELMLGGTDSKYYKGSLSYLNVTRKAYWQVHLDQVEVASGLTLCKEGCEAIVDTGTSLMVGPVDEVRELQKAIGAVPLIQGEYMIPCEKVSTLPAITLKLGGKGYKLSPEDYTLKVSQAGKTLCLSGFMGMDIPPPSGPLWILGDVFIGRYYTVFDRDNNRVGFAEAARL
Procedure: as §1

[3] = 25° C., 10 mM sodium formate, 2% DMSO, pH 4.0, fit to competitive inhibition, read-out: Ki Plm II
[4] = Table 2, read-out: Ki Plasmepsin II
[5] = 25° C., 10 mM sodium formate, 2% DMSO, pH 4.0, fit to competitive inhibition, read-out: Ki CatD
[6] = Table 2, read-out: Ki Cathepsin D

Row | Compound | inhibition constants against Plasmepsin II, in words [2] | Ki [2, 3] | Ki [2, 4] | Discrimination Factor: Fold Selectivity for Plasmepsin II over Cathepsin D [2] | Ki (human Cathepsin D; [5]) | other results
1 | Cc1ccccc1CNC(=O)[C@H]1N(C(=O)[C@@H](O)[C@H](Cc2ccccc2)NC(=O)COc2c(C)cccc2C)CSC1(C)C [KNI-840] | nanomolar and subnanomolar range | 20 ± 10 nM | 20 nM | 4 | 80 ± 90 nM | IC50 [1]: 10000 nM; discrimination factor / Cathepsin D selectivity [2]: 4; Ki ([2]; read-out: Ki (Plasmepsin II), unit inferred): ~20 nM; Ki (human Cathepsin D; [6]): 80 nM
2 | Cc1ccccc1CNC(=O)[C@H]1N(C(=O)[C@@H](O)[C@H](Cc2ccccc2)NC(=O)c2cccc(O)c2C)CSC1(C)C [KNI-764] | nanomolar and subnanomolar range | 30 ± 9 nM | 30 nM | ~7 | 201 ± 20 nM | IC50 [1]: 10000 nM; Ki (human Cathepsin D; [6]): 201 nM
3 | CSC[C@H](NC(=O)COc1cccc2cnccc12)C(=O)N[C@@H](Cc1ccccc1)[C@H](O)C(=O)N1CSC[C@H]1C(=O)NC(C)(C)C [KNI-272] |  | 1000 ± 200 nM |  |  | 2580 ± 300 nM | 
4 | Cc1ccc(CNC(=O)[C@H]2N(C(=O)[C@@H](O)[C@H](Cc3ccccc3)NC(=O)COc3c(C)cccc3C)CSC2(C)C)cc1 [KNI-10052] |  | 572 ± 54 nM |  |  | 1320 ± 152 nM | 
5 | CC(C)[C@H](NC(=O)COc1cccc2cnccc12)C(=O)N[C@@H](Cc1ccccc1)[C@H](O)C(=O)N1CSC(C)(C)[C@H]1C(=O)NC(C)(C)C [KNI-492] |  | 340 ± 20 nM |  |  | 3700 ± 350 nM | 
6 | CC(C)(C)NC(=O)C1N(C(=O)C(O)C(Cc2ccccc2)NC(=O)C(CCC(N)=O)NC(=O)COc2cccc3cnccc23)CSC1(C)C (centres unmarked) [KNI-10055] |  | 1170 ± 71 nM |  |  | 6280 ± 981 nM | 
7 | Cc1cccc(C)c1OCC(=O)N[C@@H](Cc1ccccc1)[C@H](O)C(=O)N1CSC(C)(C)[C@H]1C(=O)N[C@H]1c2ccccc2C[C@H]1O [KNI-10006] | nanomolar and subnanomolar range |  | 0.5 nM | 4 | 2 nM | discrimination factor / Cathepsin D selectivity [2]: 4; Ki ([2]; read-out: Ki (Plasmepsin II)): 0.5 nM; Ki (human Cathepsin D; [6]): 2 nM
8 | Cc1cccc(C)c1OCC(=O)N[C@@H](Cc1ccccc1)[C@H](O)C(=O)N1CSC(C)(C)[C@H]1C(=O)NCc1ccccc1 [KNI-10046] |  | 96 ± 20 nM |  |  | 260 ± 23 nM | 
9 | CSC[C@H](NC(=O)COc1cccc2cnccc12)C(=O)N[C@@H](Cc1ccccc1)[C@H](O)C(=O)N1CSC(C)(C)[C@H]1C(=O)N[C@H]1Cc2ccccc2[C@H]1O [KNI-10033] | nanomolar and subnanomolar range |  | 3 nM | ~13 | 40 ± 10 nM | Ki ([2]; 20° C., 10 mM sodium citrate, 100 mM NaCl, 2% DMSO, pH 4.0, read-out: inhibition constant, Plasmepsin II (FIG. 7)): 3 nM; Ki (human Cathepsin D; read-out: Ki for Cathepsin D): 40 nM
10 | CC(C)(C)NC(=O)[C@H]1N(C(=O)[C@@H](O)[C@H](Cc2ccccc2)NC(=O)[C@H](Cc2ccccc2)NC(=O)COc2cccc3cnccc23)CSC1(C)C [KNI-10051] |  | 186 ± 14 nM |  |  | 6510 ± 1220 nM | 
11 | CC(C)[C@H](NC(=O)c1ccccn1)C(=O)N[C@@H](Cc1ccccc1)[C@H](O)C(=O)N1CSC(C)(C)[C@H]1C(=O)NC(C)(C)C [KNI-10003] |  | 1150 ± 190 nM |  |  | 970 ± 100 nM | 
12 | CC(C)[C@H](NC(=O)Cc1cccc2ccccc12)C(=O)N[C@@H](Cc1ccccc1)[C@H](O)C(=O)N1CSC(C)(C)[C@H]1C(=O)NC(C)(C)C [KNI-10028] |  | 1630 ± 157 nM |  |  | 690 ± 70 nM | 
13 | CC(C(=O)O)C(C)C(=O)N[C@@H](Cc1ccccc1)[C@H](O)C(=O)N1CSC[C@H]1C(=O)NC(C)(C)C (some centres unmarked) [KNI-547] |  | 30700 ± 8100 nM |  |  | 18200 ± 3300 nM | 
14 | Cc1cccc(CNC(=O)[C@H]2N(C(=O)[C@@H](O)[C@H](Cc3ccccc3)NC(=O)COc3c(C)cccc3C)CSC2(C)C)c1 [KNI-10053] | nanomolar and subnanomolar range | 41 ± 7 nM | 41 nM | ~9 | 360 ± 54 nM | Ki (human Cathepsin D; [6]): 360 nM
